Tests used:
Assay type in all cases: in vivo, mongrel dogs
skeletal muscle = assay: AICAriboside infusion: nucleotide, nucleoside and base content of skeletal (gastrocnemius) muscle biopsies; parameters: AMP / ADP / ATP / TAN / IMP / Hyp (hypoxanthine): unit not given beside the values; details: for TAN: total adenine nucleotide
[1] = Serum urate concentrations; details: dog, in vivo; of 8 mmol infused, during 42 min; minimal estimate from serum urate increase and total body water; read-out: infused AICAriboside metabolized to purine nucleotides and subsequently catabolized
Description: (§1) Animal Preparation--Seven adult mongrel dogs were anesthetized intramuscularly with 40 mg of morphine sulfate and intravenously with 80 mg/kg of chloralose, an endotraceal tube was inserted, and ventilation was maintained with an Emerson volume-cycled respirator and 100% oxygen. The heart was exposed through a left lateral thoracotomy, polyvinyl chloride catheters (3-mm outer diameter) were inserted into the left atrium and into the aorta through the right femoral artery, and a Statham TTQ electromagnetic flow meter probe was positioned around the ascending aorta. The aortic pressure catheter was connected to a Statham P23Db transducer (Statham Instruments, Inc., Oxnard, CA) with the zero reference at the midchest level. Aortic flow was measured with a Howell Instruments Series 1000 Flowmeter, and stroke volume and cardiac output were calculated from the aortic flow measurement. All hemodynamic data were monitored continuously throughout the course of the study. In 5 of the animals, the skin of the left dorsal hindlimb was opened and the gastrocnemius muscle was identified for subsequent tissue sampling.
(§2) After hemodynamic parameters had stabilized, regional myocardial blood flow was measured by injecting radioactively labled microspheres. Tissue samples were obtained from the left ventricle and from the left gastrocnemius muscle. A venous blood sample was also obtained. AICAriboside (100 mM) was then infused into the left atrium at 1.9 ml/min. Repeat tissue samples were taken from the left ventricle at 15, 30 and 42 min. of infusion, and tissue samples were taken from the gastrocnemius muscle at 30 min. of infusion. Venous and arterial blood samples were also obtained at 42 min. of infusion, and regional myocardial blood flow was measured at 10 and 39 min. of AICAriboside infusion. AICAriboside infusion was terminated after 42 min., and tissue samples were taken from the left ventricle at 10, 20, 30 and 60 min. postinfusion and from the left gastrocnemius muscle at 2, 22 and 60 min. postinfusion. Venous blood samples were obtained at 10, 30 and 60 min. after AICAriboside infusion. In 4 of the 7 dogs, 400 mM formate was infused intravenously at the rate of 1.9 ml/min. for 42 min. prior to and during AICAriboside infusion. These same animals also received 6 mg of folinic acid as an intravenous bolus 30 min. prior to and 15 min. after initiating AICAriboside infusion.
(§3) Other Methods--Serum urate was determined by the enzymatic spectrophotometric method as previously described in Liddle et al., J. Lab. Clin. Med., 54, 909-913 (1959).

serum urate = assay: Serum urate concentrations; details: for Serum urate concentration: P < 0.05 vs control
Description: as §1, §2, §3

[2] = 2 min postinfusion, P < 0.05 vs control
[3] = 30 min of AICAriboside infusion
[4] = 30 min of AICAriboside infusion, P < 0.05 vs control

With `NC(=O)c1ncn([C@@H]2O[C@H](CO)[C@@H](O)[C@H]2O)c1N` [AICAriboside, 5-amino-4-imidazolecarboxamide riboside] the AMP (skeletal muscle; 2 min postinfusion) was 0.016 ± 0.002, the “Hyp (hypoxanthine)” value (skeletal muscle; 2 min postinfusion) was 0.022 ± 0.009 and the “Ino (inosine)” value (skeletal muscle; 2 min postinfusion) was 0.024 ± 0.008. For the same molecule, the ADP (skeletal muscle; [2]) was 0.65 ± 0.06, the ATP (skeletal muscle; [2]) was 4.68 ± 0.45 and the IMP (skeletal muscle; [2]) was 0.046 ± 0.012. It also gave an ADP (skeletal muscle; 22 min postinfusion) of 0.59 ± 0.03, an AMP (skeletal muscle; 22 min postinfusion) of 0.014 ± 0.003 and an ATP (skeletal muscle; 22 min postinfusion) of 4.34 ± 0.21. For the same molecule, the “Hyp (hypoxanthine)” value (skeletal muscle; 22 min postinfusion) was 0.021 ± 0.008, the “Ino (inosine)” value (skeletal muscle; 22 min postinfusion) was 0.024 ± 0.011 and the IMP (skeletal muscle; 22 min postinfusion, P < 0.05 vs control) was 0.045 ± 0.016. It also gave an ADP (skeletal muscle; [3]) of 0.53 ± 0.04, an AMP (skeletal muscle; [3]) of 0.016 ± 0.009 and an ATP (skeletal muscle; [3]) of 3.92 ± 0.23. For the same molecule, the “Hyp (hypoxanthine)” value (skeletal muscle; [4]) was 0.024 ± 0.007, the IMP (skeletal muscle; [4]) was 0.050 ± 0.012 and the “Ino (inosine)” value (skeletal muscle; [4]) was 0.035 ± 0.009. The ADP (skeletal muscle; 60 min postinfusion) was 0.56 ± 0.05, the AMP (skeletal muscle; 60 min postinfusion) was 0.018 ± 0.007 and the ATP (skeletal muscle; 60 min postinfusion) was 3.60 ± 0.41. The “Hyp (hypoxanthine)” value (skeletal muscle; 60 min postinfusion) was 0.041 ± 0.017, the “Ino (inosine)” value (skeletal muscle; 60 min postinfusion) was 0.055 ± 0.031 and the IMP (skeletal muscle; 60 min postinfusion, P < 0.05 vs control) was 0.043 ± 0.015. The “increase in IMP content” value (skeletal muscle; AICAriboside infusion) was 6-7 fold, the guanine nucleotide content (skeletal muscle; not statistically significant) was “tended to increase” and the “content of inosine and hypoxanthine” value (skeletal muscle; throughout infusion and up to 60 min thereafter) was “consistently elevated”. For the same molecule, the “content of NAD^+” value (skeletal muscle; throughout infusion, did not vary) was 0.32 ± 0.04 µmol/g, the TAN (skeletal muscle; [2]) was 5.34 ± 0.51 and the TAN (skeletal muscle; 22 min postinfusion) was 4.94 ± 0.23. The TAN (skeletal muscle; [3]) was 4.47 ± 0.27, the TAN (skeletal muscle; 60 min postinfusion) was 4.18 ± 0.44 and the metabolised at 0.7 h [1] was no less than 25%. For the same molecule, the Serum urate concentration (serum urate; 10 min postinfusion) was 3.5 ± 0.5 mg/dL, the Serum urate concentration (serum urate; 30 min postinfusion) was 2.9 ± 0.2 mg/dL and the Serum urate concentration (serum urate; 42 min of AICAriboside infusion) was 3.5 ± 0.4 mg/dL. The Serum urate concentration (serum urate; 60 min postinfusion) was 2.40 ± 0.4 mg/dL and the “increase in mean serum urate concentration” value (serum urate; following infusion of 8 mmol of AICAriboside) was 3.7 fold.

From patent US4575498A, “Method for restoring depleted purine nucleotide pools” (priority 1983, dated 1986)
